Data reported in the NIST ThermoML archive (doi:10.1021/je900298e).
± gives the expanded uncertainty stated by the source.

Conditions: 101.33 kPa, Liquid

Q: For `CCCC[N+]1(C)CCCC1.O=S(=O)([N-]S(=O)(=O)C(F)(F)F)C(F)(F)F`, which mass density (289 K) is on record?
A: 1404.3 ± 1.6 kg/m3

Q: What about the mass density (291 K) of the same molecule?
A: 1402.6 ± 1.5 kg/m3

Q: What about the mass density (293 K) of the same molecule?
A: 1401 ± 1.5 kg/m3

Q: And the mass density (295 K)?
A: 1399.4 ± 1.5 kg/m3

Q: And the mass density (297.05 K)?
A: 1397.8 ± 1.5 kg/m3

Q: What about the mass density (299.05 K) of the same molecule?
A: 1396.2 ± 1.5 kg/m3

Q: What about the mass density (301.05 K) of the same molecule?
A: 1394.6 ± 1.5 kg/m3

Q: What about the mass density (303.1 K) of the same molecule?
A: 1393.1 ± 1.5 kg/m3

Q: And the mass density (305.1 K)?
A: 1391.5 ± 1.5 kg/m3

Q: What about the mass density (307.1 K) of the same molecule?
A: 1390 ± 1.5 kg/m3

Q: What about the mass density (309.1 K) of the same molecule?
A: 1388.5 ± 1.5 kg/m3
